According to patent US6964983B2, “Compounds that modulate PPAR activity and methods for their preparation” (Warner-Lambert Company, LLC, priority 2002, dated 2005):
Blank lines part the entries; values can stand above or below the compound they belong to.

How the values were obtained:
[1] = tested on: diabetic cynomolgus monkeys; test: Eight-week rising-dose treatment of diabetic (type II) cynomolgus monkeys; assay type: in vivo; details: for Exogenous Insulin Requirement / Leptin (plasma, ELISA): Diabetic Treated; for Diabetic Monkey Mean Body Weight: treated group (Txt)
Description: (§1) C. Effect of Compounds of the Invention on Insulin Resistant or Diabetic Cynomolgus Monkeys
(§2) Cynomolgus monkeys that were either insulin resistant or diabetic (type II) were treated for eight weeks with [5-Methoxy-2-methyl-4-(4′-trifluoromethyl-biphenyl-4-ylmethylsulfanyl)-phenoxy]-acetic acid in a rising dose fashion (0.1 to 1 mg/kg). Plasma was sampled bi-weekly and analyzed for glycemics and leptin. Body weight was also measured at various time points across the study. The diabetic monkey mean body weight data is presented in Table 2 and the insulin resistant monkey mean body weight data is presented in Table 3.
The amount of exogenous insulin the diabetic monkeys received to maintain proper glucose levels, the exogenous insulin requirement, is also presented in Table 4 as baseline values vs. 8-week treatment. […] A reduction in exogenous insulin requirements is a measure of improved insulin sensitivity and glucose control.

[2] = tested on: insulin resistant cynomolgus monkeys; test: Eight-week rising-dose treatment of insulin resistant cynomolgus monkeys; assay type: in vivo; details: for Leptin (plasma, ELISA): Insulin Resistant Treated; for Insulin Resistant Monkey Mean Body Weight: treated group (Txt)
Description: as §1
as §2, with “3. […]” for “3.”

[3] = target: T1, hPPARα (Homo sapiens, UniProt Q07869); test: Transient transfection assay in HepG2 cells, Gal4-hPPARα chimeric receptor, luciferase reporter; assay type: cell-based; details: Hep G2-hAlpha EC50, 24 hours incubation; read-out: EC50α nM (Group)
T1 sequence (Q07869 200-468 limits assumed): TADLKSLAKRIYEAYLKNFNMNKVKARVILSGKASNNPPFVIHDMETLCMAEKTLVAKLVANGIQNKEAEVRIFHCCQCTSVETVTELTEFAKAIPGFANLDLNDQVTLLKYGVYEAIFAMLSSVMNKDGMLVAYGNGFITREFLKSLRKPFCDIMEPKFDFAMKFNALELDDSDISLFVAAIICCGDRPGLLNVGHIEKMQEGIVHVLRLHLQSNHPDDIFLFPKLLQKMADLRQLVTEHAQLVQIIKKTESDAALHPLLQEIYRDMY
Description: 1. Test A. Transient Transfections Assay using the HepG2 Hepatoma Cell Line.
HepG2 cells were transiently transfected with an expression plasmids encoding hPPARα, hPPARβ or mPPARγ chimeric receptors and a reporter containing the yeast upstream activating sequence (UAS) upstream of the viral E1B promoter controlling a luciferase reporter gene. In addition, the plasmid pRSVβ-gal was used to control for transfection efficiency. HepG2 cells were grown in DMEM supplemented with 10% FBS and 1 μM non-essential amino acid. On the first day, cells were split into 100 mm dishes at 2.5×10^6/dish and incubated overnight at 37° C./5% CO2. On the second day the cells were transiently transfected with plasmid DNA encoding a chimeric receptor, the luciferase reporter gene; and β-gal. For each 100 mm dish, 15 μg of lucifease reporter (PG5E1b) DNA, 15 μg of Gal4-PPAR chimeric receptor DNA, and 1.5 μg of β-gal plasmid DNA were mixed with 1.4 ml of opti-MEM in the tube. 28 μl of LipoFectamine-2000 reagent was added to 1.4 ml of opti-MEM in the tube, and incubate for 5 min at RT. The diluted Lipofectamine-2000 reagent was combined with the DNA mixture, and incubate for 20 min at RT. After fresh medium was added to each 100 mm dish of cells, 2.8 ml of Lipofectamine2000-DNA mixture was added dropwise to the 100 mm dish containing 14 ml of medium, and incubate 37° C. overnight. On day three cells were trypsinized off the 100 mm dishes and re-plated on 96 well plates. Cells were plated at 2.5×10^4 cells per well in 150 μl of media and 50 μl of compound diluted by media was added. The test compound added were in the range from 50 μM to 50 pM. After addition of compounds, the plates were incubated at 37° C. for 24 hours. Subsequently cells were washed with once with 100 μl of PBS, lysed, and processed for measuring luciferase and β-gal activity using Dual-Light luciferase kit from Tropix ®, according to the manufacturer's recommendations, on an EG&G Bethold MicroLumat LB96P luminometer. EC50 values were obtained using the GraphPad Prism™ program.

[4] = target: T2, hPPARβ (Homo sapiens, UniProt Q03181); test: Transient transfection assay in HepG2 cells, Gal4-hPPARβ chimeric receptor, luciferase reporter; assay type: cell-based; details: Hep G2-hBeta EC50, 24 hours incubation; read-out: EC50β nM (Group)
T2 sequence (Q03181 171-441 limits assumed): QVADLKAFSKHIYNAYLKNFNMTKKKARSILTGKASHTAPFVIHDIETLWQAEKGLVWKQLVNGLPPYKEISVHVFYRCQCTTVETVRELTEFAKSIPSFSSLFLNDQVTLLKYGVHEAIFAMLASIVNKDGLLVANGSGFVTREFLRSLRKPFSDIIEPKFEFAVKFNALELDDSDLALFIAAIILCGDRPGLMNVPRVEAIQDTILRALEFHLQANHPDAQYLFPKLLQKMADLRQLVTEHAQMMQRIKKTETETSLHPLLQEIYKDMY
Outline: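 HepG2 cells were transiently co-transfected with Gal4-hPPARα or Gal4-hPPARβ chimeras, a UAS-E1B luciferase reporter and a β-gal normalisation plasmid. After re-plating, cells were treated with compound at 50 pM–50 μM for 24 h at 37°C. EC50 values were derived from luciferase read-out normalised to β-gal.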

[5] = tested on: hApoA1 transgenic mouse; test: Lipid concentrations in the hApoA1 transgenic mouse; assay type: in vivo; details: 30 mg/kg/day, oral gavage
Description: B. Effect of PPAR Modulators on Lipid and Human Apoprotein A1 Concentrations in the hApoA1 Transgenic Mouse
Mice, transgenic for human apoA1, were purchased from Jackson laboratories. All animals were allowed normal chow (Ralston-Purina) and water ad libitum in temperature controlled rooms, under a 12-h light, 12-h dark cycle beginning with lights on at 6 AM. During the treatment phase of the study the mice were dosed daily between 6 and 9 AM by oral gavage using a suspension vehicle of 1.5% carboxymethylcellulose plus 0.2 percent Tween-20 (CMC/Tween) containing the specified compounds. Control animals received vehicle alone. Vehicle volume represented 0.25 percent of body weight. Under anesthesia, tail blood was obtained weekly in the morning at the indicated days of study. At termination, tissue samples (liver, intestine, fat, and muscle) were taken to study effects on genes effecting lipid metabolism. Each of the compounds of the present invention that were tested effected a significant increase in HDL over the values observed for the control animals. […] For instance, Example 4 raised HDL-c 97% and lowered triglycerides 65% relative to the control population, Example 6 raised HDL-c 24% and lowered triglycerides 59% relative to the control population, and Example 3 raised HDL-c 9% and lowered triglycerides 70% relative to the control population.

[6] = Post-Treatment (8-week treatment)
[7] = 2 wk, rising dose 0.1 to 1 mg/kg
[8] = 8 wk, rising dose 0.1 to 1 mg/kg

Structure (SMILES): COc1cc(OCC(=O)O)c(C)cc1SCc1ccc(-c2ccc(C(F)(F)F)cc2)cc1 [[5-Methoxy-2-methyl-4-(4′-trifluoromethyl-biphenyl-4-ylmethylsulfanyl)-phenoxy]-acetic acid]
Exogenous Insulin Requirement [1, 6]: 18 ± 4 u/day
Leptin (plasma, ELISA) [1, 6]: 10.89 ± 2.7 ng/mL
Exogenous Insulin Requirement ([1]; Pre-Treatment (baseline)): 66 ± 16 u/day
Leptin (plasma, ELISA) ([1]; Pre-Treatment (baseline)): 7.22 ± 0.93 ng/mL
effect on plasma leptin values ([1]; diabetic obese cynomolgus monkeys, treated vs control, baseline vs 8 weeks): lesser increase in plasma leptin values
Diabetic Monkey Mean Body Weight [1, 7]: 8.75 kg
Diabetic Monkey Mean Body Weight ([1]; 5 wk, rising dose 0.1 to 1 mg/kg): 8.37 kg
Diabetic Monkey Mean Body Weight ([1]; 7 wk, rising dose 0.1 to 1 mg/kg): 8.08 kg
Diabetic Monkey Mean Body Weight [1, 8]: 7.8 kg
Diabetic Monkey Mean Body Weight ([1]; Mean Baseline): 8.87 kg
Diabetic Monkey Mean Body Weight ([1]; −4 wk, before treatment): 8.91 kg
Diabetic Monkey Mean Body Weight ([1]; −7 wk, before treatment): 8.84 kg
Leptin (plasma, ELISA) [2, 6]: 5.73 ± 2.14 ng/mL
Leptin (plasma, ELISA) ([2]; Pre-Treatment (baseline)): 7.33 ± 1.16 ng/mL
effect on plasma leptin values ([2]; insulin resistant obese cynomolgus monkeys, treated vs control, baseline vs 8 weeks): lesser increase in plasma leptin values
Insulin Resistant Monkey Mean Body Weight [2, 7]: 5.26 kg
Insulin Resistant Monkey Mean Body Weight ([2]; 4 wk, rising dose 0.1 to 1 mg/kg): 5.04 kg
Insulin Resistant Monkey Mean Body Weight ([2]; 6 wk, rising dose 0.1 to 1 mg/kg): 4.91 kg
Insulin Resistant Monkey Mean Body Weight [2, 8]: 4.71 kg
Insulin Resistant Monkey Mean Body Weight ([2]; Mean Baseline): 5.29 kg
Insulin Resistant Monkey Mean Body Weight ([2]; −4 wk, before treatment): 5.32 kg
Insulin Resistant Monkey Mean Body Weight ([2]; −7 wk, before treatment): 5.25 kg

Structure (SMILES): Cc1cc(SCc2ccc(-c3ccc(Cl)c(C(F)(F)F)c3)cc2)ccc1OCC(=O)O [Example 6, [4-(4′-Chloro-3′-trifluoromethyl-biphenyl-4-ylmethylsulfanyl)-2-methyl-phenoxy]-acetic acid]
lowered triglycerides relative to the control population [5]: 59%
raised HDL-c relative to the control population [5]: 24%

Structure (SMILES): O=C(O)COc1ccc(SCc2cccc(OCc3ccc(C(F)(F)F)cc3)c2)c2c1CCC2 [Example 79, {7-[3-(4-Trifluoromethyl-benzyloxy)-benzylsulfanyl]-indan-4-yloxy}-acetic acid]
melting point: 145 to 146 °C
EC50 [3]: > 5000 nM
EC50 [4]: 300 to 500 nM

Structure (SMILES): O=C(O)COc1ccc(SCc2ccccc2OCc2ccc(C(F)(F)F)cc2)c2c1CCC2 [Example 81, {7-[2-(4-Trifluoromethyl-benzyloxy)-benzylsulfanyl]-indan-4-yloxy}-acetic acid]
melting point: 150 to 152 °C
EC50 [3]: > 5000 nM
EC50 [4]: < 300 nM

Structure (SMILES): COc1ccc(COc2ccc(CSc3ccc(OCC(=O)O)c(C)c3)cc2)cc1 [Example 33, {4-[4-(4-Methoxy-benzyloxy)-benzylsulfanyl]-2-methyl-phenoxy}-acetic acid]
melting point: 150 to 152 °C
EC50 [3]: 1000 to 2000 nM
EC50 [4]: 1000 to 2000 nM

The next lines start with results.

melting point: 170 to 171 °C
EC50 [3]: < 300 nM
EC50 [4]: < 300 nM
Structure (SMILES): COc1cc(OCC(=O)O)c(C)cc1SCc1ccc(-c2ccc(C(F)(F)F)cc2)cc1 [Example 4, [5-Methoxy-2-methyl-4-(4′-trifluoromethyl-biphenyl-4-ylmethylsulfanyl)-phenoxy]-acetic acid]
lowered triglycerides relative to the control population [5]: 65%
raised HDL-c relative to the control population [5]: 97%

melting point: 154 °C (dec.)
EC50 [3]: < 300 nM
EC50 [4]: < 300 nM
Structure (SMILES): COc1cc(OCC(=O)O)c(C)cc1SCc1ccc(/C=C/c2cccc(F)c2)cc1 [Example 29, (4-{4-[2-(3-Fluoro-phenyl)-vinyl]-benzylsulfanyl}-5-methoxy-2-methyl-phenoxy)-acetic acid]

melting point: 60 to 62 °C
EC50 [3]: < 300 nM
EC50 [4]: < 300 nM
Structure (SMILES): COc1cc(OCC(=O)O)c(C)cc1SCc1ccc(-c2ccccc2)cc1 [Example 1, [4-(Biphenyl-4-ylmethylsulfanyl)-5-methoxy-2-methyl-phenoxy]-acetic acid]

melting point: 140 to 141 °C
EC50 [3]: 2000 to 5000 nM
EC50 [4]: < 300 nM
Structure (SMILES): Cc1cc(SCc2ccc(-c3ccc(C(F)(F)F)cc3)cc2)ccc1OCC(=O)O [Example 3, [2-Methyl-4-(4′-trifluoromethyl-biphenyl-4-ylmethylsulfanyl)-phenoxy]-acetic acid]
lowered triglycerides relative to the control population [5]: 70%
raised HDL-c relative to the control population [5]: 9%

melting point: 225 °C (dec.)
EC50 [3]: > 5000 nM
EC50 [4]: < 300 nM
Structure (SMILES): COc1cc(OCC(=O)O)c(C)cc1SCc1ccc(-c2ccc(C(F)(F)F)cn2)cc1 [Example 18, {5-Methoxy-2-methyl-4-[4-(5-trifluoromethyl-pyridin-2-yl)-benzylsulfanyl]-phenoxy}-acetic acid]

melting point: 169 to 171 °C
EC50 [3]: < 300 nM
EC50 [4]: < 300 nM
Structure (SMILES): COc1cc(OCC(=O)O)c(C)cc1SCCc1ccc(-c2ccc(C(F)(F)F)cc2)cc1 [Example 23, {5-Methoxy-2-methyl-4-[2-(4′-trifluoromethyl-biphenyl-4-yl)-ethylsulfanyl]-phenoxy}-acetic acid]
